According to PubChem BioAssay AID2060909 (Molecular Pharmacology Branch, DTP, NCI, 2025):
One block for each compound: values may come before it.

Tested on: 362531-283-R-J2-PDC complex spheroid viability
Experiment: Anticancer human tumor 362531-283-R-J2-PDC patient-derived colon adenocarcinoma cell line growth inhibition [RAS]
Conditions: for IC50: curve of first compound; for viability, T/C: stronger effect = lower value
Description: RAS pathway inhibitors in Combinations in Complex Spheroids
A high-throughput screen of multi-cell type tumor spheroids was designed to identify active combinations of RAS pathway inhibitors and targeted small molecules. Complex spheroids include a stromal component modeled by human endothelial cells (HUVEC) and fibroblasts modeled by human mesenchymal stem cells (MSCs). The concentration ranges selected for each drug and investigational agent were based upon clinically achievable concentrations if the clinical Cmax of the agent was known.
Compounds. The drugs and investigational agents: abemaciclib (NSC768073), cobimetinib (NSC768068), divarasib (GDC6063, NSC841802), docetaxel (NSC628503), GDC-1971 (RLY-1971, NSC841576), gemcitabine (NSC613327), inavolisib (NSC800729), ipatasertib (NSC767898), KB-0742 (NSC834161), MRTX-1133 (NSC836407), osimertinib (NSC779217), RMC-4630 (NSC839698), RMC-6236 (NSC851965), RMC-6291 (NSC852671), Ro-3306 (NSC812927), sapanisertib (NSC764658), SN-38 (NSC673596), staurosporine (NSC755774), SY5609 (NSC837396), and tovorafenib (DAY101, NSC766906), were obtained from the National Cancer Institute (NCI) Developmental Therapeutics Program Chemical Repository. The FDA-approved anticancer drug set is available from the NCI Developmental Therapeutics Program. […] The stock solutions were prepared in dimethyl sulfoxide (DMSO, Sigma-Aldrich, St. Louis, MO, cat. D2650) at 800-fold the tested concentration and stored at -70 degrees C prior to their use. All drugs and investigational agents were tested over a range starting from a high concentration at or near the clinical Cmax and decreasing in half-log increments. If the clinical Cmax for an agent had not been determined, the highest concentration tested was 10 microM.
Cell Culture. All cells were maintained in an incubator at 37 degrees C and 5% CO2 with 95% humidity. The PDC lines were cultured according to standard operating procedures established by the NCI PDMR. All PDCs were thawed and cultured in Matrigel-coated flasks prepared with a working solution of 1X Ham's F-12 nutrient mix, without supplementation (Invitrogen, Waltham, MA, cat. 11765054), 100 U/mL penicillin-streptomycin (Invitrogen, cat. 15140122), and 2.5% Matrigel (Corning Inc., Corning, NY, cat. 354248) for the first three passages. The 362531-283-R-J2-PDC and 782815-120-R-J1-PDC lines were cultured in 6C/Colon 1B media, which includes advanced DMEM/F-12 (Thermo Fisher Scientific, cat. 12634028), 10 mM HEPES (Thermo Fisher Scientific, cat. 15630080), 1X GlutaMAX supplement (Thermo Fisher Scientific, cat. 35050061), 0.1 mg/mL primocin (InvivoGen, San Diego, CA, cat. ant-pm-2), 10% defined fetal bovine serum, heat inactivated (HyClone Laboratories Inc., Logan, UT, cat. SH30070.03HI), 50% L-WRN conditioned media (ATCC, cat. CRL-3276), 1.25 mM N-Acetyl-L-cysteine (Sigma-Aldrich, cat. A9165), 10 mM nicotinamide (Sigma-Aldrich, cat. N0636), 1X B-27 supplement (Thermo Fisher Scientific, cat. 17504044), 1X N-2 supplement (Thermo Fisher Scientific, cat. 17502048), 50 ng/mL human EGF (Thermo Fisher Scientific, cat. PHG0311), and 10 microM Y-27632 dihydrochloride (Tocris Bioscience, cat. 1254). The K12877-001-R-J1-PDC line was cultured in 6I media, which includes all 6C/Colon 1B media plus 10 ng/mL human FGF-10 (PeproTech, cat. 100-26), 1 ng/mL human FGF-2 (PeproTech, cat. 100-18B), 1 µM prostaglandin E2 (Tocris Bioscience, cat. 2296), […] hydrocortisone (Sigma-Aldrich, cat. H4001), and […] bovine insulin (Sigma-Aldrich, cat. I6634). The K86415-001-R-J1-PDC line was cultured in 6D media, which includes all 6C/Colon 1B media components minus the L-WRN conditioned media. The 485176-168-R4-J1-PDC was cultured in PANC media, which includes all 6C/Colon 1B media plus 100 ng/mL human FGF-10 (PeproTech, cat. 100-26), 500 nM SB-431542 (Selleckchem, cat. S1067), and 10 nM gastrin (Tocris Bioscience, cat. 3006). […]

[1] = second compound 0.0316 µM, first compound 0.0316 µM
[2] = second compound 0.0316 µM, first compound 0.1 µM
[3] = second compound 0.0316 µM, first compound 0.316 µM
[4] = second compound 0.0316 µM, first compound 1 µM
[5] = second compound 0.0316 µM, first compound 3.16 µM
[6] = second compound 0.0316 µM, first compound 10 µM
[7] = second compound 0.1 µM, first compound 0.0316 µM
[8] = second compound 0.1 µM, first compound 0.1 µM
[9] = second compound 0.1 µM, first compound 0.316 µM
[10] = second compound 0.1 µM, first compound 1 µM
[11] = second compound 0.1 µM, first compound 3.16 µM
[12] = second compound 0.1 µM, first compound 10 µM
[13] = second compound 0.316 µM, first compound 0.0316 µM
[14] = second compound 0.316 µM, first compound 0.1 µM
[15] = second compound 0.316 µM, first compound 0.316 µM
[16] = second compound 0.316 µM, first compound 1 µM
[17] = second compound 0.316 µM, first compound 3.16 µM
[18] = second compound 0.316 µM, first compound 10 µM
[19] = second compound 1 µM, first compound 0.0316 µM
[20] = second compound 1 µM, first compound 0.1 µM
[21] = second compound 1 µM, first compound 0.316 µM
[22] = second compound 1 µM, first compound 1 µM
[23] = second compound 1 µM, first compound 3.16 µM
[24] = second compound 1 µM, first compound 10 µM
[25] = second compound 3.16 µM, first compound 0.0316 µM
[26] = second compound 3.16 µM, first compound 0.1 µM
[27] = second compound 3.16 µM, first compound 0.316 µM
[28] = second compound 3.16 µM, first compound 1 µM
[29] = second compound 3.16 µM, first compound 3.16 µM
[30] = second compound 3.16 µM, first compound 10 µM
[31] = second compound 10 µM, first compound 0.0316 µM
[32] = second compound 10 µM, first compound 0.1 µM
[33] = second compound 10 µM, first compound 0.316 µM
[34] = second compound 10 µM, first compound 1 µM
[35] = second compound 10 µM, first compound 3.16 µM
[36] = second compound 10 µM, first compound 10 µM
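Further: spheroids exposed to the agents for 7 days before readout.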
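Wherever viability, T/C is given: luminescence viability as percent of DMSO vehicle control wells.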

IC50 (second compound 0.0316 µM): > 10000 nM
IC50 (second compound 0.1 µM): > 10000 nM
IC50 (second compound 0.316 µM): > 10000 nM
IC50 (second compound 1 µM): > 10000 nM
IC50 (second compound 3.16 µM): > 10000 nM
IC50 (second compound 10 µM): < 31.6 nM
SMILES: CC(C)NCC(C(=O)N1CCN(c2ncnc3c2C(C)CC3O)CC1)c1ccc(Cl)cc1 (stereo unspecified) + C#Cc1c(F)ccc2cc(O)cc(-c3ncc4c(N5CC6CCC(C5)N6)nc(OCC56CCCN5CC(F)C6)nc4c3F)c12
viability, T/C [1]: 98.4%
viability, T/C [2]: 100%
viability, T/C [3]: 89.4%
viability, T/C [4]: 102%
viability, T/C [5]: 96.7%
viability, T/C [6]: 87.5%
viability, T/C [7]: 84.4%
viability, T/C [8]: 105%
viability, T/C [9]: 94.9%
viability, T/C [10]: 96.6%
viability, T/C [11]: 102%
viability, T/C [12]: 95%
viability, T/C [13]: 94%
viability, T/C [14]: 95.5%
viability, T/C [15]: 92.6%
viability, T/C [16]: 82.4%
viability, T/C [17]: 83.7%
viability, T/C [18]: 65.1%
viability, T/C [19]: 79.9%
viability, T/C [20]: 88.1%
viability, T/C [21]: 78.3%
viability, T/C [22]: 81%
viability, T/C [23]: 81.1%
viability, T/C [24]: 75.5%
viability, T/C [25]: 61.5%
viability, T/C [26]: 73.6%
viability, T/C [27]: 66.9%
viability, T/C [28]: 87%
viability, T/C [29]: 63%
viability, T/C [30]: 53.2%
viability, T/C [31]: 43.3%
viability, T/C [32]: 39.6%
viability, T/C [33]: 43.9%
viability, T/C [34]: 47%
viability, T/C [35]: 50.6%
viability, T/C [36]: 39.3%

IC50 (second compound 0.0316 µM): > 100 nM
IC50 (second compound 0.1 µM): > 100 nM
IC50 (second compound 0.316 µM): 20.5 nM
IC50 (second compound 1 µM): 13.1 nM
IC50 (second compound 3.16 µM): 3.09 nM
IC50 (second compound 10 µM): < 0.316 nM
SMILES: CC(C)n1nc(-c2ccc3oc(N)nc3c2)c2c(N)ncnc21 + C#Cc1c(F)ccc2cc(O)cc(-c3ncc4c(N5CC6CCC(C5)N6)nc(OCC56CCCN5CC(F)C6)nc4c3F)c12
viability, T/C (second compound 0.0316 µM, first compound 0.000316 µM): 96%
viability, T/C (second compound 0.0316 µM, first compound 0.001 µM): 87.6%
viability, T/C (second compound 0.0316 µM, first compound 0.00316 µM): 91.9%
viability, T/C (second compound 0.0316 µM, first compound 0.01 µM): 78.7%
viability, T/C [1]: 50.2%
viability, T/C [2]: 53.2%
viability, T/C (second compound 0.1 µM, first compound 0.000316 µM): 104%
viability, T/C (second compound 0.1 µM, first compound 0.001 µM): 98%
viability, T/C (second compound 0.1 µM, first compound 0.00316 µM): 86.3%
viability, T/C (second compound 0.1 µM, first compound 0.01 µM): 68%
viability, T/C [7]: 66.6%
viability, T/C [8]: 48.7%
viability, T/C (second compound 0.316 µM, first compound 0.000316 µM): 91.9%
viability, T/C (second compound 0.316 µM, first compound 0.001 µM): 94.5%
viability, T/C (second compound 0.316 µM, first compound 0.00316 µM): 85.6%
viability, T/C (second compound 0.316 µM, first compound 0.01 µM): 62.5%
viability, T/C [13]: 41.1%
viability, T/C [14]: 41.5%
viability, T/C (second compound 1 µM, first compound 0.000316 µM): 80.4%
viability, T/C (second compound 1 µM, first compound 0.001 µM): 86.2%
viability, T/C (second compound 1 µM, first compound 0.00316 µM): 78.2%
viability, T/C (second compound 1 µM, first compound 0.01 µM): 51.9%
viability, T/C [19]: 45.9%
viability, T/C [20]: 38.4%
viability, T/C (second compound 3.16 µM, first compound 0.000316 µM): 74.2%
viability, T/C (second compound 3.16 µM, first compound 0.001 µM): 55.2%
viability, T/C (second compound 3.16 µM, first compound 0.00316 µM): 57.4%
viability, T/C (second compound 3.16 µM, first compound 0.01 µM): 35.3%
viability, T/C [25]: 33.6%
viability, T/C [26]: 26.1%
viability, T/C (second compound 10 µM, first compound 0.000316 µM): 42.9%
viability, T/C (second compound 10 µM, first compound 0.001 µM): 42.5%
viability, T/C (second compound 10 µM, first compound 0.00316 µM): 34%
viability, T/C (second compound 10 µM, first compound 0.01 µM): 25.5%
viability, T/C [31]: 20.1%
viability, T/C [32]: 18.3%

IC50 (second compound 0.0316 µM): 1290 nM
IC50 (second compound 0.1 µM): 963 nM
IC50 (second compound 0.316 µM): 847 nM
IC50 (second compound 1 µM): 421 nM
IC50 (second compound 3.16 µM): 119 nM
IC50 (second compound 10 µM): 42.9 nM
SMILES: CC(Nc1ccc2c(c1)OCCn1cc(N3C(=O)OCC3C(F)F)nc1-2)C(N)=O (stereo unspecified) + C#Cc1c(F)ccc2cc(O)cc(-c3ncc4c(N5CC6CCC(C5)N6)nc(OCC56CCCN5CC(F)C6)nc4c3F)c12
viability, T/C [1]: 90.7%
viability, T/C [2]: 88.4%
viability, T/C [3]: 79%
viability, T/C [4]: 55%
viability, T/C [5]: 33.7%
viability, T/C [6]: 31%
viability, T/C [7]: 95%
viability, T/C [8]: 77%
viability, T/C [9]: 69.9%
viability, T/C [10]: 48.6%
viability, T/C [11]: 34.5%
viability, T/C [12]: 28.8%
viability, T/C [13]: 103%
viability, T/C [14]: 81.5%
viability, T/C [15]: 63.7%
viability, T/C [16]: 50.9%
viability, T/C [17]: 29.7%
viability, T/C [18]: 13.8%
viability, T/C [19]: 80.5%
viability, T/C [20]: 59.4%
viability, T/C [21]: 62.9%
viability, T/C [22]: 34.2%
viability, T/C [23]: 25.6%
viability, T/C [24]: 18%
viability, T/C [25]: 62%
viability, T/C [26]: 51.9%
viability, T/C [27]: 31.4%
viability, T/C [28]: 7.66%
viability, T/C [29]: 7.58%
viability, T/C [30]: 4.5%
viability, T/C [31]: 56.1%
viability, T/C [32]: 33%
viability, T/C [33]: 6.59%
viability, T/C [34]: 4.96%
viability, T/C [35]: 3.74%
viability, T/C [36]: 2.42%
